The test system of data set [1] is experimental Streptococcus uberis mastitis. In words: Rectal temperature in cows with experimental Streptococcus uberis mastitis. Type of data set: in vivo. Particulars: cephapirin alone, intramammary, 4 infusions.
Description: Eighteen lactating cows were intramammarily inoculated into the two left quarters with Streptococcus uberis (±1000 CFU/quarter). At 2 days after challenge, when all cows had clinical signs of mastitis (i.e. quarter foremilk modification and/or udder swelling), cows were allotted to three groups of six cows each, to produce groups with similar parity and milk production.
One group was treated with cephapirin alone (group 1), one group was treated with cephapirin and 20 mg prednisolone (group 2) and one group was non-treated (group 3). Cows included in group 1 and group 2 were treated in the 2 left inoculated quarters at day 2 after challenge. The first treatment was applied after a morning milking, and the following three infusions were performed immediately after the next 3 consecutive milkings. Cows of group 3 were left untreated. […] The rectal temperature was determined from day 9 before first treatment up to day 19 after first treatment.
Data set [2] deals with leukocytes in blood. In words: Number of leukocytes in blood from cows with endotoxin-induced mastitis. Format: in vivo.
Description: (§1) Fifteen cows were allotted to three groups of 5 cows each, according to milk production and parity. Cows were intramammary infused into 2 homo-lateral quarters with 100 μg Escherichia coli endotoxin (purified lipopolysacchide (LPS) obtained from E. coli 0111:B4) in 20 ml saline.
(§2) Cows were treated with the contents of one injector per endotoxin infused quarter when the first signs of clinical mastitis were evident, i.e. approximately 2 hours after endotoxin infusion. One group was treated with 300 mg of cephapirin, one group with 300 mg of cephapirin and 20 mg of prednisolone and one group was the non-treated control. The test preparations contained cephapirin and prednisolone in an oil carrier.
(§3) Blood samples were collected from the jugular vein at 24 hours before endotoxin infusion and 1.5, 8, 48 and 72 hours after endotoxin infusion.
For data set [3], the system named is blood PMN. In words: Chemotaxis of blood PMN from cows with endotoxin-induced mastitis. Type of data set: in vivo.
Description: as §1, §2, §3
For data set [4], the system named is cows with endotoxin-induced mastitis. In words: Udder scores (local inflammation) in cows with E. coli endotoxin-induced mastitis. Format: in vivo. How it is done: Twenty-four cows were allotted to four groups of 6 cows each, according to milk production and parity. All cows were intramammary infused into two homo-lateral quarters with 100 μg Escherichia coli endotoxin (purified lipopolysacchide (LPS) obtained from E. coli 0111:B4) in 20 ml saline.
The test preparations contained cephapirin and prednisolone in an oily carrier. Four different dose levels of prednisolone were tested: 0 mg (group 1), 10 mg (group 2), 20 mg (group 3) and 40 mg (group 4) per injector (8 g) together with 200 mg of cephapirin sodium.
Cows were treated with the contents of one injector per endotoxin infused quarter when the first signs of clinical mastitis were evident, i.e. 1.5 hours after endotoxin infusion. The next three treatments were infused immediately after consecutive afternoon or morning milkings (12 hours interval) during 2 days. In total four treatments were administered.
Udder scores: The condition and swelling of quarters were determined by palpation once daily after morning milking from day−7 to day−1 relative to endotoxin infusion and twice daily after milkings from day+1 to day+6 relative to endotoxin infusion. The day of endotoxin infusion, swelling of quarters was assessed by palpation approximately every half hour during ±12.5 hours after infusion. The scoring system provides scores 0 to 4. Higher values refer to increased and more severe signs of local inflammation.

Data set [5] relates to pathogen identified on day 0 (clinical mastitis). In words: Field study: bacteriological cure rate in clinical mastitis. Format: in vivo, cows. The conditions noted are these: higher dosage of prednisolone (20 mg) versus 10 mg, field conditions. The method, then: Lactating cows with clinical mastitis in a single quarter (571) were treated intramammarily either with a composition A (n=260) comprising 300 mg cefapirin sodium and 20 mg of prednisolone four times with a 12 h interval or with composition B (n=254) comprising 200 mg amoxicilline, 50 mg clavulanic acid and 10 mg of prednisolone three times with a 12 h interval. These administration schedules correspond to the recommended dosage of the products. The efficacy of the treatment was determined by the bacteriological cure rate (elimination of pathogen identified on day 0) at day 14, and day 21 and the clinical cure rate (affected quarter produces normal milk and no signs of clinical mastitis anymore) at days 14 and 21.
Bacteriological cure: A cow was considered as bacteriologically cured when, both on Days 14 and 21, the milk sample from the affected quarter was free from pathogen(s) present at day 0 (at admission prior to treatment). For clinical mastitis, treatment were considered as a failure for which cows were not yet clinically cured on the first post-treatment sampling (Day 14). […]
The parameters for efficacy are the outcome variables “bacteriological cure” (cure/non-cure) and “clinical cure” (cure/non-cure). The results in Table 3 and FIG. 6 are expressed as numbers and percentages of cows cured.

Data set [6] concerns non-bacterial E. coli endotoxin induced clinical mastitis. The conditions noted are these: intramammary infusion of 40 mg/unit dose; experimental conditions; cited from earlier work.
Setting [7] is: 1.5 hours relative to endotoxin infusion (before first treatment).
Where [8] appears, read: 8 hours relative to endotoxin infusion, treatments at 2, 8, 24 and 36 hours.
Setting [9] is: 24 hours relative to endotoxin infusion, treatments at 2, 8, 24 and 36 hours.
[10] abbreviates: 72 hours relative to endotoxin infusion, treatments at 2, 8, 24 and 36 hours.
Setting [11] is: −24 hours relative to endotoxin infusion (before treatment).

On to `CC(=O)OCC1=C(C(=O)O)N2C(=O)[C@@H](NC(=O)CSc3ccncc3)[C@H]2SC1` [Cephapirin], for which the “average rectal temperature after treatment” value in data set [1] was “decreased slowly”. Moreover, the “Number of leukocytes in blood (mean)” value is reported as 8157 in data set [2] (setting [7]); 6329 in data set [2] (setting [8]); 12148 in data set [2] (setting [9]); 11317 in data set [2] (setting [10]); 8217 in data set [2] (setting [11]). Moreover, the “Chemotactic PMN (mean)” value in data set [3] (setting [7]) is 1.404e+06 mL⁻¹; in data set [3] (setting [8]) it was 142000 mL⁻¹; in data set [3] (setting [9]), 650000 mL⁻¹; in data set [3] (setting [10]), 135000 mL⁻¹; in data set [3] (setting [11]) it was 2.115e+06 mL⁻¹.
For the compound `C[C@]12C=CC(=O)C=C1CC[C@@H]1[C@@H]2[C@@H](O)C[C@@]2(C)[C@H]1CC[C@]2(O)C(=O)CO` [prednisolone, (11β)-11,17,21-trihydroxypregna-1,4-diene-3,20-dione], the “dose effect relation of prednisolone and sum of udder scores” value in data set [4] (0, 10, 20, 40 mg prednisolone per injector with 200 mg cephapirin sodium, higher dosages gave lower sum of udder scores) is “clear dose effect relation”. For the same compound, the “sum of udder scores compared to placebo quarters” value in data set [4] (20 mg prednisolone per injector with 200 mg cephapirin sodium, intramammary, 4 treatments, from 8 hours post infusion up to evening milking of day 5) is “lower sum of udder scores”. For the same compound, the “sum of udder scores compared to placebo quarters (0 mg prednisolone) and quarters treated with 10 mg prednisolone” value in data set [4] (40 mg prednisolone per injector with 200 mg cephapirin sodium, intramammary, 4 treatments, from 8 hours post infusion up to evening milking of day 5) is given as “significantly lower”. Also, the “influence on the bacteriological cure rate” value in data set [5] is recorded as “did not negatively influence”. Besides, the “effects on local and systemic inflammatory signs” value in data set [6] is recorded as “improved effects”.
